# Source: ChEMBL document CHEMBL4433222, “Treatment of Alzheimer's by PROTAC-Tau Protein Degradation” (ACS Med Chem Lett, 2019)
# Test: Half life in CD1 mouse brain at 30 mg/kg, ip by LC-MS/MS analysis
# Type: ADME, organism-based
compound,measurement,value
O=C(CCc1ccc2c(c1)[nH]c1ccncc12)NCCOCCOCCNc1cccc2c1C(=O)N(C1CCC(=O)NC1=O)C2=O (stereo unspecified),half-life,46 min
